Assay results taken from patent US8580786B2, “Triazine derivatives and their therapeutical applications” (Nant Holdings IP, LLC, priority 2006, dated 2013).

Each molecule was assayed on MX-1 (human breast carcinoma) cells (assay: Cytotoxicity assay (Promega CellTiter Blue Cell Viability Assay), in vitro growth inhibition). Conditions: MX1, MX-1 cells, 72 hrs exposure to compound, CellTiter Blue fluorescence readout, read-out: IC50 (μM), cytotoxicity of triazine derivatives.
Assay type: cell-based
Description: A cytotoxicity assay was quantitated using the Promega CellTiter Blue Cell Viability Assay. Briefly, cells (5000 cells/well) were plated onto 96-well microtiter plates in RPMI 1640 medium supplemented with 10% FBS and incubated at 37° C. in a humidified 5% CO2 atmosphere. After 24 hrs., cells were exposed to various concentrations of compound in DMSO and cultured for another 72 hrs. 100 ul of media were removed and 20 ul of Promega CellTiter Blue reagent were added to each well and shaken to mix. After 4 hours of incubation at 37° C. in a humidified 5% CO2 atmosphere, the plates were read at 544 ex/620 em. The fluorescence produced is proportional to the number of viable cells. After plotting fluorescence produced against drug concentration, the IC50 was calculated as the […] of the resulting non-linear regression.

Which IC50 does the source give for Cc1nc(Cl)nc(Nc2ncc(C(=O)Nc3c(C)cccc3Cl)s2)n1 [Compound 4] here?
The IC50 was 12.2 µM.

With Cc1nc(Nc2ncc(C(=O)Nc3c(C)cccc3Cl)s2)nc(N2CCN(CCO)CC2)n1 [Compound 5] as the molecule, how does the IC50 read?
Its IC50 is 16 µM.

How did the IC50 turn out when Cc1nc(Nc2ncc(C(=O)Nc3c(C)cccc3Cl)s2)nc(N2CCN(c3ccncc3)CC2)n1 [Compound 6] was run?
The IC50 was 2.6 µM.

For Cc1nc(Nc2ncc(C(=O)Nc3c(C)cccc3Cl)s2)nc(N2CCN(C)CC2)n1 [Compound 7], which IC50 is on record?
The IC50 was 38.7 µM.

How did the IC50 turn out when Cc1nc(Nc2ncc(C(=O)Nc3c(C)cccc3Cl)s2)nc(N2CCOCC2)n1 [Compound 8] was run?
Its IC50 is 58.1 µM.

Cc1nc(Cl)nc(Nc2ccc(Oc3ccc(Cl)cc3)cc2)n1 [Compound 9] was tested. Which IC50 did it give?
Its IC50 is 19.1 µM.

How did the IC50 turn out when Cc1nc(Nc2ccc(Oc3ccc(Cl)cc3)cc2)nc(N2CCN(CCO)CC2)n1 [Compound 10] was run?
Its IC50 is 14.1 µM.

For Cc1nc(Nc2ccc(Oc3ccc(Cl)cc3)cc2)nc(N2CCN(c3ccncc3)CC2)n1 [Compound 11], which IC50 is on record?
Its IC50 is 1.4 µM.

Cc1cccc(Cl)c1NC(=O)c1cnc(Nc2nc(Cl)nc(Nc3cnc(C(=O)Nc4c(C)cccc4Cl)s3)n2)s1 [Compound 12] was tested. Which IC50 did it give?
Its IC50 is 237 µM.

For Cc1cccc(Cl)c1NC(=O)c1cnc(Nc2nc(Cl)nc(N3CCN(CCO)CC3)n2)s1 [Compound 13], which IC50 is on record?
Its IC50 is 171 µM.

Cc1cccc(Cl)c1NC(=O)c1cnc(Nc2nc(N3CCN(c4ccncc4)CC3)nc(N3CCN(c4ccncc4)CC3)n2)s1 [Compound 14] was tested. Which IC50 did it give?
Its IC50 is 131 µM.
